Laboratory results as given in patent publication US6716819B2, “Use of xylitol to reduce ionic strength and activate endogenous antimicrobials for prevention and treatment of infections” (University of Iowa Research Foundation, priority 2000, dated 2004).

How the values were obtained:
non-CF epithelia = assay: Transepithelial electrical properties in Ussing chambers; assay type: cell-based, human; conditions: 10 μM apical, n=9
Description: (§1) For measurement of transepithelial electrical properties, a few epithelia from each culture preparation were mounted in Ussing chambers and studied as previously described (Zabner, J., J. J. Smith, P. H. Karp, J. H. Widdicombe, and M. J. Welsh. 1998. Loss of CFTR chloride channels alters salt absorption by cystic fibrosis airway epithelia in vitro. Mol. Cell. 2:397-403). Transepithelial resistance was 588±33 Ω·cm^2 (n=9) for non-CF and 493±24 Ω·cm^2 (n=9) for CF epithelia. The decrease in current after apical addition of 10 μM amiloride was 26.9±1.0 μA·cm^−2·hr^−1 (n=9) for non-CF epithelia and 20.0±1.3 μA·cm^−2·hr^−1 (n=9) for CF epithelia.

CF epithelia = assay: as above; assay type: cell-based, human; conditions: 10 μM apical, n=9
Description: as §1

P. aeruginosa = assay: Growth in carbon-starved M9 media (O.D.); assay type: cell-based; conditions: M9 media supplemented at 100 mM
Protocol: FIGS. 5(A-G). […] A, B and C. Growth of P. aeruginosa (A), S. aureus, (B), and coagulase-negative Staphylococcus (C) were measured as O. D. M9 media alone is indicated by open triangle. Xylitol (closed circle), or succinate, mannitol, or sucrose (open circles), were added to M9 media at 100 mM as indicated. D. Nasal swabs were collected and cultured for 3 days in Lauria-Bertani media (open circles), in minimal M9 media (open squares), or in M9 media supplemented with 100 mM xylitol (closed circles). E, F and G. P. aeruginosa (E), S. aureus (F), and coagulase-negative Staphylococcus (G) were cultured in Lauria-Bertani media alone (open triangles), Lauria-Bertani media with 100 mM xylitol (closed circles), and Lauria-Bertani media containing tobramycin or levofloxacin (open circles).
To test the effect of xylitol on growth of different airway pathogens in a carbon-starved media, P. aeruginosa, S. aureus, and coagulase-negative Staphylococcus were grown overnight in Lauria-Bertani medium. The bacteria were then centrifuged and resuspended in M9 media containing either 100 mM succinate, mannitol, or sucrose, respectively, and grown overnight at 37° C. The bacteria were centrifuged and resuspended in M9 media alone. M9 media containing 100 mM xylitol, or 100 mM of the indicated metabolizable sugar, as positive control. The optical density (O.D.) was measured after 0, 1, 2, and 4 hours at 600 nm on a Beckman DU640 Spectrophotometer (Schaumburg, Ill.). To test the antibiotic effect of xylitol, P. aeruginosa, S. aureus, and coagulase-negative Staphylococcus were grown overnight in Lauria-Bertani medium. The bacteria were then centrifuged and resuspended in Lauria-Bertani media with and without 100 mM xylitol. As a positive control, antibiotics with specific activity to each of the bacteria were added to the media (40 μg/ml tobramycin or 40 μg/ml levofloxacin).

Row | SMILES | decrease in current after apical addition (non-CF epithelia) | decrease in current after apical addition (CF epithelia) | growth of P. aeruginosa (P. aeruginosa)
1 | N=C(N)NC(=O)c1nc(Cl)c(N)nc1N [amiloride] | 26.9±1.0 μA·cm^−2·hr^−1 | 20.0±1.3 μA·cm^−2·hr^−1 | 
2 | O=C(O)CCC(=O)O [succinate, reference compound] |  |  | allowed bacterial growth
